In brackets after ≈: the same amount, converted by molar mass. Several values for one entry are separate records, joined by “and”; a condition that tells them apart may be missing. Identical values can stand only once. Entries after “also recorded” stand apart in the source; their conditions may differ.
Experiments:
[1] = test system: Herpes simplex type 1 (TK-), strain HF; test: microbe, parasite or virus in culture; format: cell-based
[2] = test system: Herpes simplex type 2, strain MS; test: Cytopathogenic inhibition test, HSV-2; format: cell-based
[3] = test system: Vaccinia, strain Lederle CA; test: microbe, parasite or virus in culture; format: cell-based
[4] = test system: Cytomegalovirus, strain AD 169; test: Cytomegalovirus (CMV) Yield Reduction Assay; format: cell-based
[5] = test system: Varicella-Zoster virus, isolate DM625; test: Varicella-Zoster Virus (VZV) Plaque Reduction Assay; format: cell-based
[6] = test system: Yellow Fever virus, strain Asibi; test: microbe, parasite or virus in culture; format: cell-based, Yellow Fever virus; host Vero cells
[7] = test system: Punta Toro virus, strain Adames; test: microbe, parasite or virus in culture; format: cell-based, Punta Toro virus; host Vero cells
[8] = test system: Influenza (Hong Kong), strain A2 /Aichi/2/68; test: microbe, parasite or virus in culture; format: cell-based, Influenza virus; host MDCK (Madin Darby canine kidney cells)
[9] = test system: malignant human promyelocytic leukemia cell line, HL-60; test: Growth inhibition and differentiation of HL-60 cells (nitroblue tetrazolium reduction); format: cell-based
[10] = test system: HL-60 DNA synthesis / RNA synthesis; test: Inhibition of nucleic acid (DNA, RNA) synthesis in HL-60 cells; format: cell-based, human
[11] = test system: Huf (human diploid foreskin cells); test: Toxicity to Huf host cells (gross cell morphology) in the VZV assay; format: cell-based
[12] = test system: phosphorylation of uridine; test: Inhibition of uridine phosphorylation
P388 leukemia = test: In vivo antitumor test, P388 leukemia in mice
L1210 leukemia = test: In vivo antitumor test, L1210 leukemia in mice; conditions: for Number of 60 day survivors per test group: QD1-9
L1210/ara-C Leukemia = test: In vivo antitumor test, ara-C resistant L1210 leukemia in mice; conditions: for Number of 60 day survivors per test group / % ILS: Table IV; for Number of 60 day survivors per test group: QD1-9; for % ILS: QD1-9, terminated day 60; for activity against ara-C resistant tumor: result in words
[13] = test system: MRC5 (diploid human embryonic lung cells); test: Toxicity to MRC5 host cells (gross cell morphology) in the CMV assay
LOX Melanoma = test: Human tumor xenograft in athymic mice, LOX melanoma (intraperitoneal)
MX-1 Mammary = test: Human tumor xenograft in athymic mice, MX-1 mammary (subrenal capsule); conditions: for % Tumor Inhibition: day 0 to 11; for % tumor weight inhibition: Table IV, QD1-9, day 0 to day 11
[14] = minimum toxic drug concentration / ID50, Vero cells
[15] = Table II Experiment 1, tumor IP, IP QD1-9, OD 1.0 mg/kg/injection
[16] = Table II Experiment 2, tumor IP, IP QD1-9, OD 1.5 mg/kg/injection
[17] = IP L1210, IP treatment daily days 1-9, optimum dose 1 mg/kg/inj (Table I)
[18] = IP L1210, IP treatment every 4th day, days 1, 5, 9, optimum dose 4 mg/kg/inj
[19] = IP L1210, IP treatment every 3 hr x 8, days 1, 5, 9, optimum dose 0.5 mg/kg/inj
[20] = Table II Experiment 1, tumor IP, oral drug administration, OD 2.25 mg/kg/injection
[21] = Table II Experiment 2, tumor IP, IP QD1-9, OD 1.0 mg/kg/injection
[22] = Table II Experiment 2, tumor IP, oral drug administration, OD 2.25 mg/kg/injection
[23] = Table II Experiment 2, tumor SC, IP QD1-9, OD 1.0 mg/kg/injection

## Nc1ccn([C@@H]2C=C(CO)[C@@H](O)[C@H]2O)c(=O)n1 [CPE-C]
[1]; Vero cells, strain HF, two determinations
  VR (virus rating): 3.8 and 2.7
[1]; result in words
  antiviral activity: greater than arabinosyl adenine (ara-A); also recorded: Potent activity
[2]; Human alphaherpesvirus 2, Vero cells, strain MS, inhibition of virus-induced cytopathogenic effects, read-out: ID50 (the source's name)
  IC50: 2.7 µg/mL (≈ 11.3 µM)
[2]; Vero cells, strain MS
  VR (virus rating): 2.3
[2]; result in words
  antiviral activity: Potent activity
[3]
  potency relative to ara-A: about 100 times
[3]; Orthopoxvirus vaccinia, Vero, in Chlorocebus sabaeus, read-out: ID50
  IC50: 0.1 µg/mL (≈ 0.418 µM)
[3]; Vero cells, strain Lederle CA
  VR (virus rating): 4.6
[3]; result in words
  antiviral activity: very sensitive to CPE-C; also recorded: Potent activity
[4]; Human betaherpesvirus 5, 144 h, 0.1 μg/ml, MRC5 cells, read-out: Reduction in Virus Yield
  log reduction at 0.1 µg/mL: 0.8
[4]; Human betaherpesvirus 5, 144 h, 0.32 μg/ml, MRC5 cells, read-out: Reduction in Virus Yield
  log reduction at 0.32 µg/mL: 1.3
[4]; Human betaherpesvirus 5, 144 h, 1.0 μg/ml, MRC5 cells, read-out: Reduction in Virus Yield
  log reduction at 1 µg/mL: 1.4
[4]; Human betaherpesvirus 5, 144 h, 3.2 μg/ml, MRC5 cells, read-out: Reduction in Virus Yield
  log reduction at 3.2 µg/mL: 1.5
[4]; Human betaherpesvirus 5, 144 h, 10 μg/ml, MRC5 cells, read-out: Reduction in Virus Yield
  log reduction at 10 µg/mL: 1.9
[4]; Human betaherpesvirus 5, 144 h, 32 μg/ml, MRC5 cells, read-out: Reduction in Virus Yield
  log reduction at 32 µg/mL: 2
[4]; Human betaherpesvirus 5, 144 h, 100 μg/ml, MRC5 cells, read-out: Reduction in Virus Yield
  log reduction at 100 µg/mL: 2
[4]; Human betaherpesvirus 5, 144 h, 320 μg/ml, MRC5 cells, read-out: Reduction in Virus Yield
  log reduction at 320 µg/mL: 5.3
[4]; result in words
  antiviral activity: Potent activity; also recorded: Activity was observed for both compounds
[5]; Human alphaherpesvirus 3, 144 h, 0.01 μg/ml, Huf cells
  inhibition at 0.01 µg/mL: 0%
[5]; Human alphaherpesvirus 3, 144 h, 0.032 μg/ml, Huf cells
  inhibition at 0.032 µg/mL: 3%
[5]; Human alphaherpesvirus 3, 144 h, 0.1 μg/ml, Huf cells
  inhibition at 0.1 µg/mL: 21%
[5]; Human alphaherpesvirus 3, 144 h, 0.32 μg/ml, Huf cells
  inhibition at 0.32 µg/mL: 33%
[5]; Human alphaherpesvirus 3, 144 h, 1.0 μg/ml, Huf cells
  inhibition at 1 µg/mL: 36%
[5]; Human alphaherpesvirus 3, 144 h, 3.2 μg/ml, Huf cells
  inhibition at 3.2 µg/mL: 33%
[5]; Human alphaherpesvirus 3, 144 h, 10 μg/ml, Huf cells
  inhibition at 10 µg/mL: 33%
[5]; Human alphaherpesvirus 3, 144 h, 100 μg/ml, Huf cells
  inhibition at 100 µg/mL: 41%
[5]; Human alphaherpesvirus 3, 144 h, 320 μg/ml, Huf cells
  inhibition at 320 µg/mL: 36%
[5]; result in words
  antiviral activity: Potent activity; also recorded: Activity was observed for both compounds
[6]; Vero cells, strain Asibi
  VR (virus rating): 0.9
[6]; Yellow fever virus, Vero, read-out: ID50
  IC50: 5.05 µg/mL (≈ 21.1 µM)
[6]; [14]
  TI (therapeutic index): 0.1
[7]
  VR (virus rating): 1.5
[7]; Punta Toro virus, Vero, read-out: ID50
  IC50: 1.01 µg/mL (≈ 4.22 µM)
[7]; [14]
  TI (therapeutic index): 0.3
[7]; result in words
  antiviral activity: Good activity; also recorded: Virus ratings greater than two
[8]
  VR (virus rating): 2.4
  antiviral activity: Good activity; also recorded: Virus ratings greater than two
[8]; MDCK, in Canis lupus familiaris, read-out: ID50
  IC50: 18.2 µg/mL (≈ 76.1 µM)
[9]; continuous exposure for 5 days to 10^-8 to 10^-6 M
  inhibition of cell growth: progressive inhibition of cell growth
[9]; continuous exposure for 5 days to 10^-8 to 10^-6 M, general statement
  differentiation: differentiation to a non-malignant phenotype
[9]; four days after exposure to 10^-7 M
  cell population that reduced nitroblue tetrazolium: 95%
[10]; 10^-7 M
  RNA synthesis: inhibited to a lesser extent
[10]; 24 hrs. after exposure to 10^-7 M
  DNA synthesis, % of control levels: 10%
[11]; 320 μg/ml
  Host cell toxicity (gross cell morphology): Slightly toxic
[11]; 100 and 32 μg/ml
  Host cell toxicity (gross cell morphology): Very slightly toxic
[12]
  inhibition of phosphorylation of uridine: inhibited competitively the phosphorylation of uridine
P388 leukemia; [15]
  % ILS: 88%
  LCK: 0.9 log
P388 leukemia; [16]
  % ILS: 69%
  LCK: 0.1 log
P388 leukemia; result in words
  activity: only modest activity
L1210 leukemia; IP 1.0 mg/kg, QD 1-9, 30-day, 1.5 mg/kg
  long term survivors: Multiple 30-day survivors; also recorded: multiple long term survivors
L1210 leukemia; [17]
  ILS (median percent increase in life span): 124%
  LCK (approximate log cell kill at the end of treatment): 3.0 log
L1210 leukemia; [18]
  ILS (median percent increase in life span): 91%
  LCK (approximate log cell kill at the end of treatment): 0.1 log
L1210 leukemia; [19]
  ILS (median percent increase in life span): 116%
  LCK (approximate log cell kill at the end of treatment): 1.5 log
L1210 leukemia; QD 1-9, Q4D, Q3Hx8
  schedule dependency: no significant schedule dependency
L1210 leukemia; Table II Experiment 1, tumor IC (intracerebral), IP QD1-9, OD 1.5 mg/kg/injection
  % ILS: 45%
L1210 leukemia; [15]
  % ILS: 212%
  LCK: > 6.0 log
  Number of 30 day survivors out of six mice: 4
L1210 leukemia; [20]
  % ILS: 125%
  LCK: 1.9 log
L1210 leukemia; Table II Experiment 1, tumor SC, IP QD1-9, OD 1.5 mg/kg/injection
  % ILS: 109%
L1210 leukemia; Table II Experiment 2, tumor IC (intracerebral), IP QD1-9, OD 1.0 mg/kg/injection
  % ILS: 42%
L1210 leukemia; [21]
  % ILS: 201%
  LCK: > 5.8 log
  Number of 30 day survivors out of six mice: 2
L1210 leukemia; [22]
  % ILS: 57%
  LCK: -2.2 log
L1210 leukemia; [23]
  % ILS: 83%
  Number of 30 day survivors out of six mice: 1
L1210 leukemia; Table IV, CPE-C 1.0 mg/kg
  Number of 60 day survivors per test group: 1/10
L1210 leukemia; Table IV, CPE-C 1.0 mg/kg, QD1-9, terminated day 60
  % ILS: 116%
L1210 leukemia; Table IV, CPE-C 1.5 mg/kg
  Number of 60 day survivors per test group: 2/9
L1210 leukemia; Table IV, CPE-C 1.5 mg/kg, QD1-9, terminated day 60
  % ILS: 171%
L1210 leukemia; Table IV, CPE-C 2.25 mg/kg, QD1-9, terminated day 60
  % ILS: 146%
L1210 leukemia; in vivo antitumor experiments
  potency relative to carbodine, in vivo antitumor: A similar potency difference
L1210 leukemia; initial in vivo tests
  activity and potency relative to carbodine: significantly greater levels of activity and potency than carbodine
L1210 leukemia; intracerebral L1210, text
  ILS: about 40%
L1210 leukemia; standard L1210 leukemia
  activity, head to head comparison with 3DU: significantly better
L1210/ara-C Leukemia; CPE-C 1.0 mg/kg
  Number of 60 day survivors per test group: 6/10
  % ILS: > 650%
L1210/ara-C Leukemia; CPE-C 1.5 mg/kg
  Number of 60 day survivors per test group: 5/9
  % ILS: > 650%
L1210/ara-C Leukemia; CPE-C 2.25 mg/kg
  Number of 60 day survivors per test group: 6/10
  % ILS: > 650%
L1210/ara-C Leukemia
  activity against ara-C resistant tumor: producing multiple cures against the resistant tumor; also recorded: collaterally sensitive
L1210/ara-C Leukemia; listed as cyclopentenyl cytosine
  activity against ara-C resistant tumor: significant antitumor activity
[13]; 320 μg/ml
  Host cell toxicity (gross cell morphology): Slightly toxic
[13]; each of 100, 32, 10, 3.2 and 1.0 μg/ml
  Host cell toxicity (gross cell morphology): Very slightly toxic
LOX Melanoma; 2.25 mg/kg, QD 1-9
  tumor cell kill: two-log tumor cell kill
LOX Melanoma; LOX xenograft
  potency relative to 3DU: about 100 times
LOX Melanoma; Table III Experiment 1, tumor IP, IP QD1-9, OD 1.0 mg/kg/injection
  % ILS: 119%
LOX Melanoma; Table III Experiment 2, tumor IP, IP QD1-9, OD 2.25 mg/kg/injection
  % ILS: 80%
LOX Melanoma; Table IV, CPE-C 1.5 mg/kg, QD1-9
  % ILS: 58%
LOX Melanoma; Table IV, CPE-C 2.25 mg/kg, QD1-9
  % ILS: 80%
LOX Melanoma; in vivo
  difference in tumor burden between CPE-C and 3DU: five-log difference in tumor burden
LOX Melanoma; intraperitoneally implanted
  increase in life span: about 100%
LOX Melanoma; result in words
  activity: Good activity
MX-1 Mammary
  growth inhibition: 100%
MX-1 Mammary; MX-1 xenograft
  potency relative to 3DU: about 100 times
MX-1 Mammary; Table III Experiment 1, SRC, IP QD1-9, OD 1.5 mg/kg/injection
  % Tumor Inhibition: 100%
MX-1 Mammary; Table III Experiment 2, SRC, IP QD1-9, OD 2.25 mg/kg/injection
  % Tumor Inhibition: 95%
MX-1 Mammary; CPE-C 1.5 mg/kg
  % tumor weight inhibition: 94%
MX-1 Mammary; CPE-C 2.25 mg/kg
  % tumor weight inhibition: 100%
MX-1 Mammary; result in words
  activity: complete inhibition of tumor growth

Reference: patent US4975434A, “Antiviral and anticancer cyclopentenyl cytosine” (priority 1989, dated 1990)
